Read-outs that look alike come from different tables or passages of the source.
What was measured:
AMPA receptor = AMPA receptor inhibition, whole-cell patch clamp, KA-stimulated currents in primary cultures of rat neocortex; assay type: cell-based; settings: rat cortical neurons; for AMPA % INHIBITION (10 μM drug): KA 50 μM; for IC50: 5 doses
Protocol: The potency of Examples 1-5, 7, 11, 17 and 31 listed in Table 1, for drug inhibition of the AMPA receptor was tested using the whole-cell patch clamp technique on primary cultures of rat neocortex. The general procedure for stimulating AMPA-receptor mediated currents with KA and for the measurement of current inhibition is based on that used by Donevan and Rogawski (Neuron, 10:51-59, 1993) for 2,3-benzodiazepines.
Standard extracellular bath solutions and intracellular pipette solutions are used as described in detail by Hussy and coworkers (J. Physiol. (Lond.), 481.2:311-323,1994). The drug application system is designed to allow rapid switching between 7 different reservoirs containing either control bath solution, kainic acid (50 μM), or kainic acid (50 μM) plus antagonist (10 μM). Each recording is begun with a control response to KA alone.
Following the establishment of a 2-3 sec duration steady baseline, bathing solution is switched to one containing KA plus antagonist for an additional 2-3 sec period. Alternatively, 5 different doses of a single compound are tested for the determination of the antagonist IC50. The results of the assay of Examples 1-5, 7, 11, 17 and 31 are listed below in Table 3, which illustrates AMPA receptor inhibition in rat cortical neurons. The compounds tested all were useful as antagonists of non-NMDA EAA receptors.

Male NIH Swiss mice = assay: Maximum Electro Shock (MES) Seizure Test; assay type: in vivo; settings: ip, 0.5 hours
Protocol: The extent of protection by a test compound in a seizure model is tested as described by Rogawski et al. (Epilepsy Research, 15:179-184, 1993). Male NIH Swiss mice (25-30 g) are injected ip with the test drug. The mice are subjected to a 0.2 sec, 60 Hz, 50 mA electrical stimulus delivered with corneal electrodes wetted with 0.9% saline at 15-30 min post dosing. Animals failing to show tonic hind limb extension are scored as protected. Compounds may be selected which are active in this model.

Mice = assay: Subcutaneous Metrazol (scMET) Seizure Test; assay type: in vivo; settings: 30 mg/kg, 0.5 hr, metrazol 90 mg/kg sc
Protocol: This test is to determine the extent of protection by a test compound in a seizure model. The method used is that of Chen et at. (Proc. Soc. Exp. Biol. Med., 87:334, 1954). Mice are randomly assigned to vehicle or treatment groups of 3-10 animals per group and then dosed accordingly. Metrazol (pentylenetetrazol) 90 mg/kg is administered subcutaneously (sc) at different time points (0.25, 0.5, 1, 2, 4 hr) after the treatment or control groups. The mice individually housed in clear runs and observed for the presence or absence of clonic seizure activity (>5 s duration) for 30 min after metrazol dosing. A compound is considered active if no seizure is observed. Data is analyzed using a quantal measure (protection/number tested).

global ischemia = settings: rat common carotid arteries model; cited from earlier work
cortical infarct volumes = settings: cited from earlier work

Row | Compound | AMPA % INHIBITION (10 μM drug) (AMPA receptor) [%] | IC50 (AMPA receptor) [µM] | also measured
1 | CCCCNC(=O)N1N=C(c2ccc(N)cc2)c2cc3c(cc2C1C)OCO3 (stereo not drawn) [Example 5, 4-(4-Aminophenyl)-1,2-dihydro-1-methyl-2-n-butylcarbamoyl-6,7-methylenedioxyphthalazine] | 86 | 1.8 | –
2 | CCCNC(=O)N1N=C(c2ccc(N)cc2)c2cc3c(cc2C1C)OCO3 (stereo not drawn) [Example 3, 4-(4-Aminophenyl)-1,2-dihydro-1-methyl-2-propylcarbamoyl-6,7-methylendioxyphthalazine] | 80 | 2.8 | MES Score (protected/no. tested) (Male NIH Swiss mice; 31 mg/kg): 5/8
3 | CCCNC(=O)N1N=C(c2ccc(N)cc2)c2cc(OC)c(OC)cc2C1C (stereo not drawn) [Example 133] | – | – | scMET Score (protect./no. tested) (Mice): 1/5; MES Score (protected/no. tested) (Male NIH Swiss mice; 30 mg/kg): 1/3
4 | CCC1c2cc3c(cc2C(c2ccc(N)cc2)=NN1C(=O)NC)OCO3 (stereo not drawn) [Example 11, 4-(4-Aminophenyl)-1,2-dihydro-1-ethyl-2-methylcarbamoyl-6,7-methylendioxyphthalazine] | 36 | – | –
5 | CC1c2cc3c(cc2C(c2ccc(N)cc2)=NN1C(=O)NC(C)(C)C)OCO3 (stereo not drawn) [Example 7] | 70 | 5.4 | –
6 | CC1=NN=C(c2ccc(N)cc2)c2cc3c(cc2C1)OCO3 [GYKI 52466] | – | – | effectiveness in global ischemia compared with NBQX (global ischemia): as effective as the glutamate site competitive antagonist NBQX; reduction of cortical infarct volumes (cortical infarct volumes; delayed for one hour): 48%; reduction of cortical infarct volumes (cortical infarct volumes; given continuously for 2 hours just after occlusion): 68%
7 | CC1c2cc3c(cc2C(c2ccc(N)cc2)=NN1C(=O)N(C)C)OCO3 (stereo not drawn) [Example 31, 4-(4-Aminophenyl)-1,2-dihydro-2-(N,N-dimethylcarbamoyl)-1-methyl-6,7-methylendioxyphthalazine] | 33 | – | –
8 | CC(C)NC(=O)N1N=C(c2ccc(N)cc2)c2cc3c(cc2C1C)OCO3 (stereo not drawn) [Example 4, 4-(4-Aminophenyl)-1,2-dihydro-1-methyl-2-isopropylcarbamoyl-6,7-methylendioxyphthalazine] | 45 | – | –
9 | CCNC(=O)N1N=C(c2ccc(N)cc2)c2cc3c(cc2C1C)OCO3 (stereo not drawn) [Example 2, 4-(4-Aminophenyl)-1,2-dihydro-2-(N-ethylcarbamoyl)-1-methyl-6,7-methylendioxyphthalazine] | 55 | 7.2 | MES Score (protected/no. tested) (Male NIH Swiss mice; 30 mg/kg): 3/3
10 | CC(=O)N1N=C(c2ccc(N)cc2)c2cc3c(cc2C1C)OCO3 (stereo not drawn) [Example 17] | 20 | – | –
11 | CNC(=O)N1N=C(c2ccc(N)cc2)c2cc3c(cc2C1C)OCO3 (stereo not drawn) [Example 1, 4-(4-Aminophenyl)-1,2-dihydro-1-methyl-2-(N"-methylcarbamoyl)-6,7-methylendioxyphthalazine] | 20 | 23 | –

— patent US5716956A, “Dihydrophthalazine antagonists of excitatory amino acid receptors” (Bearsden Bearsden Bio, Inc., priority 1996, dated 1998)
